# Source: patent US20070208068A1, “Aqueous Composition Comprising Thiazole Derivative” (R-TECH UENO, LTD. & Astellas Pharma Inc., priority 2004, published 2007)
# Tests used:
# Assay type in all cases: physicochemical
# [1] = Effect of sodium chloride on the solubility of Compound A, B and C (aqueous saturated solutions); details: for solubility: thermodynamic from solid; for Precipitation: aqueous saturated solution
# Method: Sodium chloride was added to thus obtained aqueous saturated solution of Compound A, B, and C respectively in an amount to give 0.4% NaCl solution and the mixture was stirred.
# Similarly, the saturated aqueous solution of Compound A-C was added with sodium chloride in an amount to give 0.85% solution, and precipitation and solubility were observed.
# [2] = Effect of the additives on solubility of Compound C (aqueous saturated solution)
# Method: To the saturated solution of Compound C prepared in the same manner as test example 1, glycerin in an amount to give 2.5% solution was added and the mixture was stirred. Similarly, mannitol in an amount to give 3.5% solution, boric acid in an amount to give 2% solution, potassium chloride in an amount to give 0.2% solution, disodium hydrogenphosphate in an amount to give 1% and sodium citrate in an amount to give 1% solution were added to the aqueous saturated solution of Compound C respectively. Precipitation and solubility, i.e. the change of the concentration of Compound C in the solution or supernatant were observed.
# [3] = Effect of the additives on the stability of the aqueous solution comprising Compound C, stored at 40° C. in LDPE container
# [4] = Effect of the additives on the stability of the aqueous solution comprising Compound D, stored at 40° C. in LDPE container; details: Compound D 0.3%
# Method: Compound D was added with glycerin and distilled water and stirred to give clear aqueous solution (Conc. of Compound D: 0.3%, conc. of glycerin: 2.5%, about pH 6). Thus obtained solution was stored at 40° C. in the LDPE container and concentration of Compound D in the solution was observed over time.
# [5] = aqueous saturated solution with 0.4% NaCl, saline or isotonic, conc. in solution or supernatant, NaCl 0.4%
# [6] = aqueous saturated solution with 0.85% NaCl, saline or isotonic, conc. in solution or supernatant, NaCl 0.85%
# [7] = distilled water (injection grade), aqueous saturated solution in distilled water, NaCl 0%, A about pH 7, B about pH 3 (HCl), C about pH 7 (HCl)
# [8] = Boric acid 1.68% and borax 0.018%, 40° C., 1 month
# [9] = Boric acid 1.68% and borax 0.018%, 40° C., 3 months
# [10] = Boric acid 1.68% and borax 0.018%, 40° C., 6 months
smiles,measurement,setting,value
CC(=O)Nc1nc(CCc2ccc(NC(=N)N)cc2)cs1 [Compound A],% Solubulity,[1]; NaCl 0% (reference),=100%
same,% Solubulity,"[1]; NaCl 0.4%, vs 0% NaCl",31%
same,% Solubulity,"[1]; NaCl 0.85%, vs 0% NaCl",20%
same,solubility,[1]; [5],1110 µg/mL
same,solubility,[1]; [6],690 µg/mL
same,Precipitation,[1]; conc. of NaCl 0%,no
same,Precipitation,[1]; conc. of NaCl 0.4%,yes
same,Precipitation,[1]; conc. of NaCl 0.85%,yes
same,solubility,[1]; [7],3550 µg/mL
CC(=O)Nc1nc(CCc2ccc(CON)cc2)cs1 [Compound B],% Solubulity,[1]; NaCl 0% (reference),=100%
same,% Solubulity,"[1]; NaCl 0.4%, vs 0% NaCl",100%
same,% Solubulity,"[1]; NaCl 0.85%, vs 0% NaCl",100%
same,solubility,[1]; [5],1170 µg/mL
same,solubility,[1]; [6],1190 µg/mL
same,Precipitation,[1]; conc. of NaCl 0%,no
same,Precipitation,[1]; conc. of NaCl 0.4%,no
same,Precipitation,[1]; conc. of NaCl 0.85%,no
same,solubility,[1]; [7],1120 µg/mL
CC(=O)Nc1nc(CCc2ccc(NC(=N)N)cc2)c(Cc2ccc(S(C)(=O)=O)cc2)s1 [Compound C],% Solubulity,[1]; NaCl 0% (reference),=100%
same,% Solubulity,"[1]; NaCl 0.4%, vs 0% NaCl",16%
same,% Solubulity,"[1]; NaCl 0.85%, vs 0% NaCl",8%
same,solubility,[1]; [5],1760 µg/mL
same,solubility,[1]; [6],860 µg/mL
same,Precipitation,[1]; conc. of NaCl 0%,no
same,Precipitation,[1]; conc. of NaCl 0.4%,yes
same,Precipitation,[1]; conc. of NaCl 0.85%,yes
same,solubility,[1]; [7],10700 µg/mL
same,B/A ratio,[2]; Boric acid 2%,100%
same,Conc. of C/w additive (B),[2]; Boric acid 2%,11590 µg/mL
same,Precipitation,[2]; Boric acid 2%,no
same,B/A ratio,[2]; Glycerin 2.5%,95%
same,Conc. of C/w additive (B),[2]; Glycerin 2.5%,10910 µg/mL
same,Precipitation,[2]; Glycerin 2.5%,no
same,B/A ratio,[2]; Mannitol 3.5%,96%
same,Conc. of C/w additive (B),[2]; Mannitol 3.5%,11050 µg/mL
same,Precipitation,[2]; Mannitol 3.5%,no
same,B/A ratio,[2]; Potassium Chloride 0.2%,29%
same,Conc. of C/w additive (B),[2]; Potassium Chloride 0.2%,3160 µg/mL
same,Precipitation,[2]; Potassium Chloride 0.2%,yes
same,solubility thermodynamic,"[2]; aqueous saturated solution, pH 7, water, thermodynamic from solid, saturated solution before adding Mannitol 3.5%, read-out: Conc. of C w/o additive (A)",11500 µg/mL
same,B/A ratio,[2]; disodium hydrogenphosphate 1%,24%
same,Conc. of C/w additive (B),[2]; disodium hydrogenphosphate 1%,2540 µg/mL
same,Precipitation,[2]; disodium hydrogenphosphate 1%,yes
same,Conc. of C w/o additive (A),[2]; saturated solution before adding Boric acid 2%,11510 µg/mL
same,Conc. of C w/o additive (A),[2]; saturated solution before adding Glycerin 2.5%,11510 µg/mL
same,Conc. of C w/o additive (A),[2]; saturated solution before adding Potassium Chloride 0.2%,10730 µg/mL
same,Conc. of C w/o additive (A),[2]; saturated solution before adding disodium hydrogenphosphate 1%,10730 µg/mL
same,Conc. of C w/o additive (A),[2]; saturated solution before adding sodium citrate 1%,10730 µg/mL
same,B/A ratio,[2]; sodium citrate 1%,4%
same,Conc. of C/w additive (B),[2]; sodium citrate 1%,480 µg/mL
same,Precipitation,[2]; sodium citrate 1%,yes
same,Change in Concentration of Compound C (vs the initial conc.),[3]; [8],104.9%
same,Change in Concentration of Compound C (vs the initial conc.),[3]; [9],106.2%
same,Change in Concentration of Compound C (vs the initial conc.),[3]; [10],108.2%
same,Change in Concentration of Compound C (vs the initial conc.),"[3]; Boric acid 1.68% and borax 0.018%, 40° C., Initial",=100%
same,Change in Concentration of Compound C (vs the initial conc.),"[3]; Glycerin 2.5%, Compound C 0.3%, about pH 6, 40° C., 1 month",105.4%
same,Change in Concentration of Compound C (vs the initial conc.),"[3]; Glycerin 2.5%, Compound C 0.3%, about pH 6, 40° C., 3 months",110.6%
same,Change in Concentration of Compound C (vs the initial conc.),"[3]; Glycerin 2.5%, Compound C 0.3%, about pH 6, 40° C., 6 months",112.3%
same,Change in Concentration of Compound C (vs the initial conc.),"[3]; Glycerin 2.5%, Compound C 0.3%, about pH 6, 40° C., Initial",=100%
same,Change in Concentration of Compound C (vs the initial conc.),"[3]; Mannitol 4.7%, 40° C., 1 month",103.7%
same,Change in Concentration of Compound C (vs the initial conc.),"[3]; Mannitol 4.7%, 40° C., 3 months",108.4%
same,Change in Concentration of Compound C (vs the initial conc.),"[3]; Mannitol 4.7%, 40° C., 6 months",109.6%
same,Change in Concentration of Compound C (vs the initial conc.),"[3]; Mannitol 4.7%, 40° C., Initial",=100%
CC(=O)Nc1nc(CCc2ccc(NC(=N)N)cc2)c(Cc2ccc(S(C)(=O)=O)cc2)s1.Cl [Compound D],Change in Concentration of Compound D (vs the initial conc.),[4]; [8],99.7%
same,Change in Concentration of Compound D (vs the initial conc.),[4]; [9],105.8%
same,Change in Concentration of Compound D (vs the initial conc.),[4]; [10],102.6%
same,Change in Concentration of Compound D (vs the initial conc.),"[4]; Boric acid 1.68% and borax 0.018%, 40° C., initial",=100%
same,Change in Concentration of Compound D (vs the initial conc.),"[4]; Glycerin 2.5%, about pH 6, 40° C., 1 month",100.8%
same,Change in Concentration of Compound D (vs the initial conc.),"[4]; Glycerin 2.5%, about pH 6, 40° C., 3 months",107.7%
same,Change in Concentration of Compound D (vs the initial conc.),"[4]; Glycerin 2.5%, about pH 6, 40° C., 6 months",104.4%
same,Change in Concentration of Compound D (vs the initial conc.),"[4]; Glycerin 2.5%, about pH 6, 40° C., initial",=100%
